Assay results from patent publication US9814758B2, “Inhibitors of apoptosis and uses thereof” (CENTRE NATIONAL DE LA RECHERCHE SCIENTIFIQUE-CNRS, priority 2010, dated 2017).
No end group written: not given here.

Biological target: T1, His-tagged intracellular region of Fas receptor (Homo sapiens, UniProt P25445)
T1 construct: His-tagged intracellular region of Fas receptor [10 μg/ml]; purchased Sigma
T1 sequence (P25445 191-335 limits assumed): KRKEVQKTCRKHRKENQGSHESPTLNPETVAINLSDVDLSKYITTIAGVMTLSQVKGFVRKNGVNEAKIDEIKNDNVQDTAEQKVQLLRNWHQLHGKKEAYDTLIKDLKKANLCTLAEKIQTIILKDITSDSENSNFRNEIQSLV
Experiment: SPOT peptide array, enzyme-linked blot with His-tagged Fas
Assay type: binding
Details: Fas 10 μg/ml; anti-His/anti-mouse-HRP
Procedure: FIG. 1: Determination of the DAXX epitope by SPOT synthesis. (A) The amino acid sequence of DAXX was dissected in overlapping peptide arrays (pepscan; 15 mer peptides with a shift of 3 amino acids) and analyzed in enzyme-linked blot. […] Incubation conditions: His-tagged intracellular region of Fas receptor [10 μg/ml]; antibodies: anti-His-(mouse) (Sigma H1029; 1:6,000)/anti-mouse-HRP (Calbiochem 401207; 1:2,000), exposure time: 1 minute. (B) Alignment of the human DAXX sequence comprising the 16-mer KKSRKEKKQTGSGPLG (=DAXXp of SEQ ID NO: 5) with the DAXX sequences of other species (mouse, rat, dog (CANFA) and green monkey (CHLAE)).
FIG. 2: Determination of the optimal length of the DAXX epitope (=DAXXp) by SPOT synthesis. (A) The DAXXp-211 and DAXXp-209 peptides (of SEQ ID NO: 2 and SEQ ID NO: 3, respectively) were successively shortened by one amino acid residue at the N-terminus, at the C-terminus and both at the N- and the C-termini, and analyzed using enzyme-linked blot. […] Incubation conditions: His-tagged intracellular region of Fas receptor [10 μg/ml]; antibodies: anti-His-(mouse) (Sigma H1029; 1:6,000)/anti-mouse-HRP (Calbiochem 401207; 1:2,000), exposure time: 1 minute. (B) Alignment of both peptide sequences DAXXp-211 and DAXXp-209; corresponding to the brightest spots, to determine the optimal DAXX peptide sequence.
FIG. 8: Determination of FADDp15 and its anti-apoptotic effect in cardiomyocytes. (A) The protein sequences of FADD were dissected in overlapping peptide arrays (pepscan; 15 mer peptides with a shift of 3 amino acids) and analyzed using enzyme-linked blot. […] (B) The peptide sequence of FADDp-11 (=FADDp15=SEQ ID NO: 9) was successively shortened by one amino acid residue at the C-terminus, the N-terminus, or at both the C-terminus and the N-terminus, and analyzed using enzyme-linked blot. […] The shortest FADD epitope (a 9-mer with sequence KRKLERVQS (=FADDp=SEQ ID NO: 12)) corresponded to spot No. 24. Incubation conditions: His-tagged intracellular region of Fas receptor [10 μg/ml]; antibodies: anti-His-(mouse) (Sigma H1029; 1:6,000)/anti-mouse-HRP (Calbiochem 401207; 1:2,000), exposure time: 1 minute.
The peptides were synthesized on N-modified CAPE-membranes (Bhargava et al, Mol. Recognit, 2002, 15: 145) and prepared by a MultiPep SPOT-robot (INTAVIS Bioanalytical Instruments AG, Cologne, Germany). Array design was performed with the aid of the in-house software LISA 1.71. The synthesis started with spot definition using a standard protocol [Frank, Tetrahedron, 1992, 48: 9217), followed by the coupling of a solution of Fmoc-cysteine-(Trt)-Opfp (0.3M) in N-methylpyrolidone (NMP) and Fmoc-alanine-Opfp (double coupling, 15 min reaction each). After Fmoc cleavage with piperidine in DMF (20%), 4-hydroxymethylphenoxyacetic acid (HMPA) dissolved in dimethylformamide (DMF, 0.6M solution) and activated with EEDQ (1.1 equiv) was added, and samples were directly spotted on the membrane (4× coupling, 15 min reaction each). The membrane was acetylated with acetic anhydride in DMF (2%), washed with DMF (5×3 min), ethanol (2×3 min), and diethyl ether (2×3 min), and finally air dried. Solutions of Fmoc-amino acid-OH (0.4M) activated with 1,1′-carbonyldiimidazole (CDI, 3 equiv) in DMF were spotted on the membrane (4× coupling, 15 min reaction time each). Proline, tyrosine, and glutamine were activated with 1,1′-carbonyldi(1,2,4-triazole) (CDT). The Fmoc group was removed from the spots, and the peptide sequences were completed using the standard SPOT synthesis protocol (Frank, Tetrahedron, 1992, 48: 9217) followed by a N-terminal tag with β-alanine.
The primary sequence of the DAXX protein (SEQ ID NO: 1) was dissected in overlapping 15 mer peptides (3 amino acids shift) and all the peptides (243 peptides) were synthesized on cellulose membrane by SPOT synthesis as described above. The peptide library was incubated with the His-tagged intra-cellular region of the Fas receptor (Sigma). […]

## KKSRKEKKQTGSGPLG-NH2 [DAXXp, KKSRKEKKQTGSGPLG-NH2]
  interaction with the Fas receptor / signal intensity of the spot: interact with the Fas receptor
